Measurements reported in the NIST ThermoML archive (doi:10.1016/j.jct.2008.02.020).

Conditions: Liquid, Buoyancy - hydrostatic balance with magnetic suspension - one sinker

CCCCCCC [heptane]
Conditions	mass density [kg/m3]
233.15 K, 101.68 kPa	733.289
233.15 K, 1104.1 kPa	733.918
233.15 K, 2003.3 kPa	734.481
233.15 K, 4006 kPa	735.714
233.15 K, 6004.8 kPa	736.928
233.15 K, 8009.5 kPa	738.125
233.15 K, 9956.8 kPa	739.277
233.15 K, 11864 kPa	740.377
233.15 K, 13984 kPa	741.588
233.15 K, 15995 kPa	742.722
233.15 K, 17888 kPa	743.774
233.15 K, 20074 kPa	744.977
233.15 K, 22024 kPa	746.029
233.15 K, 24018 kPa	747.094
233.15 K, 25954 kPa	748.113
233.15 K, 27944 kPa	749.147
233.15 K, 29979 kPa	750.192
253.15 K, 98.99 kPa	717.086
253.15 K, 1101.5 kPa	717.807
253.15 K, 2000.5 kPa	718.446
253.15 K, 4006.3 kPa	719.85
253.15 K, 6005.4 kPa	721.223
253.15 K, 8147.8 kPa	722.669
253.15 K, 10096 kPa	723.959
253.15 K, 11827 kPa	725.088
253.15 K, 13955 kPa	726.459
253.15 K, 16060 kPa	727.785
253.15 K, 18040 kPa	729.014
253.15 K, 20020 kPa	730.22
253.15 K, 22093 kPa	731.465
253.15 K, 23828 kPa	732.495
253.15 K, 25891 kPa	733.701
253.15 K, 27739 kPa	734.762
253.15 K, 29900 kPa	735.987
273.15 K, 102.15 kPa	700.687
273.15 K, 1101.3 kPa	701.507
273.15 K, 2006.3 kPa	702.244
273.15 K, 4005.4 kPa	703.841
273.15 K, 6005.5 kPa	705.403
273.15 K, 8197.5 kPa	707.077
273.15 K, 10109 kPa	708.507
273.15 K, 12114 kPa	709.976
273.15 K, 14092 kPa	711.403
273.15 K, 16116 kPa	712.831
273.15 K, 18076 kPa	714.19
273.15 K, 20096 kPa	715.565
273.15 K, 22069 kPa	716.883
273.15 K, 24102 kPa	718.226
273.15 K, 25918 kPa	719.397
273.15 K, 27991 kPa	720.718
273.15 K, 29444 kPa	721.633
293.15 K, 98.89 kPa	683.986
293.15 K, 1104.3 kPa	684.937
293.15 K, 2003.3 kPa	685.779
293.15 K, 4003 kPa	687.611
293.15 K, 6003.7 kPa	689.394
293.15 K, 8007.4 kPa	691.14
293.15 K, 10028 kPa	692.854
293.15 K, 12139 kPa	694.603
293.15 K, 14008 kPa	696.118
293.15 K, 16160 kPa	697.827
293.15 K, 18149 kPa	699.368
293.15 K, 19992 kPa	700.756
293.15 K, 22123 kPa	702.362
293.15 K, 24036 kPa	703.766
293.15 K, 25999 kPa	705.175
293.15 K, 27983 kPa	706.576
293.15 K, 29986 kPa	707.965
313.15 K, 101.45 kPa	666.898
313.15 K, 1102.2 kPa	667.995
313.15 K, 2005.5 kPa	668.973
313.15 K, 4004.5 kPa	671.086
313.15 K, 6106.9 kPa	673.238
313.15 K, 7941.2 kPa	675.062
313.15 K, 9944.4 kPa	676.997
313.15 K, 11841 kPa	678.793
313.15 K, 13782 kPa	680.575
313.15 K, 16032 kPa	682.588
313.15 K, 17876 kPa	684.2
313.15 K, 19748 kPa	685.804
313.15 K, 21803 kPa	687.518
313.15 K, 23829 kPa	689.172
313.15 K, 25814 kPa	690.765
313.15 K, 27801 kPa	692.324
313.15 K, 29818 kPa	693.872
333.15 K, 103 kPa	649.298
333.15 K, 1106 kPa	650.588
333.15 K, 2004.1 kPa	651.723
333.15 K, 4003.6 kPa	654.18
333.15 K, 6004.6 kPa	656.549
333.15 K, 8005.6 kPa	658.837
333.15 K, 9901.5 kPa	660.933
333.15 K, 12083 kPa	663.274
333.15 K, 14040 kPa	665.309
333.15 K, 16005 kPa	667.293
333.15 K, 17854 kPa	669.109
333.15 K, 19985 kPa	671.149
333.15 K, 21967 kPa	672.997
333.15 K, 23926 kPa	674.778
333.15 K, 25823 kPa	676.467
333.15 K, 27823 kPa	678.205
333.15 K, 30009 kPa	680.058
353.15 K, 99.37 kPa	631.037
353.15 K, 1182.8 kPa	632.68
353.15 K, 2156.3 kPa	634.131
353.15 K, 4140.7 kPa	636.982
353.15 K, 6175.6 kPa	639.78
353.15 K, 8138.9 kPa	642.37
353.15 K, 10095 kPa	644.851
353.15 K, 12083 kPa	647.284
353.15 K, 14040 kPa	649.596
353.15 K, 16039 kPa	651.883
353.15 K, 18008 kPa	654.064
353.15 K, 19996 kPa	656.201
353.15 K, 21956 kPa	658.247
353.15 K, 23925 kPa	660.247
353.15 K, 25887 kPa	662.188
353.15 K, 27855 kPa	664.084
353.15 K, 29976 kPa	666.077
373.15 K, 1164.3 kPa	613.877
373.15 K, 2149.2 kPa	615.631
373.15 K, 4123.5 kPa	618.999
373.15 K, 5987 kPa	622.014
373.15 K, 8094.8 kPa	625.262
373.15 K, 10060 kPa	628.151
373.15 K, 12066 kPa	630.972
373.15 K, 14018 kPa	633.61
373.15 K, 16044 kPa	636.241
373.15 K, 18058 kPa	638.765
373.15 K, 19976 kPa	641.085
373.15 K, 21960 kPa	643.408
373.15 K, 23948 kPa	645.665
373.15 K, 25805 kPa	647.712
373.15 K, 27898 kPa	649.952
373.15 K, 29819 kPa	651.952
393.15 K, 1101.9 kPa	593.952
393.15 K, 2001.5 kPa	595.905
393.15 K, 4002.8 kPa	600.027
393.15 K, 6004.3 kPa	603.884
393.15 K, 8005.5 kPa	607.511
393.15 K, 10007 kPa	610.942
393.15 K, 12111 kPa	614.361
393.15 K, 14116 kPa	617.466
393.15 K, 16097 kPa	620.399
393.15 K, 18029 kPa	623.142
393.15 K, 20054 kPa	625.904
393.15 K, 22016 kPa	628.483
393.15 K, 24006 kPa	631.008
393.15 K, 25986 kPa	633.434
393.15 K, 27952 kPa	635.769
393.15 K, 29843 kPa	638.037
